In ChEMBL document CHEMBL1240372, “Murine model of a disseminated infection by the novel fungus Fonsecaea monophora and successful treatment with posaconazole” (Antimicrob Agents Chemother, 2010):
In brackets after ≈: the same amount, converted by molar mass. Activity calls are given as the source filed them. The calls are words filed in the database; no cut-off is given here.

Assays:
[1] = test system: Fonsecaea monophora; experiment: Antifungal activity against 2 x 10^5 CFU Fonsecaea monophora CBS 117236 infected in OF1 mouse assessed as increase in mouse survival at 40 mg/kg, po qd administered 1 day after infection for 7 days; assay type: functional, organism-based; parameters: dose 40 mg/kg
[2] = test system: Fonsecaea monophora; experiment: Antifungal activity against 1 x 10^6 CFU Fonsecaea monophora CBS 269.37 infected in po dosed OF1 mouse assessed as reduction in fungal load in lung compound administered qd 1 day after infection for 7 days; assay type: functional, organism-based
[3] = Drug level in 1 x 10^6 CFU Fonsecaea monophora CBS 269.37 infected OF1 mouse brain at 20 mg/kg, po qd administered 1 day after infection measured on day 6 after 4 hrs of last treatment; assay type: ADME, organism-based; parameters: dose 20 mg/kg, route oral; conditions: read-out: Drug uptake
[4] = test system: Fonsecaea monophora; experiment: Antifungal activity against 2 x 10^5 CFU Fonsecaea monophora CBS 117236 infected in po dosed OF1 mouse assessed as reduction in fungal load in lung compound administered qd 1 day after infection for 7 days; assay type: functional, organism-based
[5] = test system: Fonsecaea monophora; experiment: Antifungal activity against 1 x 10^6 CFU Fonsecaea monophora CBS 269.37 infected in po dosed OF1 mouse assessed as reduction in fungal load in spleen compound administered qd 1 day after infection for 7 days; assay type: functional, organism-based
[6] = Drug level in 1 x 10^6 CFU Fonsecaea monophora CBS 269.37 infected OF1 mouse serum at 10 mg/kg, po qd administered 1 day after infection measured on day 6 after 4 hrs of last treatment; assay type: ADME, organism-based; parameters: dose 10 mg/kg, route oral; conditions: read-out: Drug uptake
[7] = Drug level in 1 x 10^6 CFU Fonsecaea monophora CBS 269.37 infected OF1 mouse serum at 20 mg/kg, po qd administered 1 day after infection measured on day 6 after 4 hrs of last treatment; assay type: ADME, organism-based; parameters: dose 20 mg/kg, route oral; conditions: read-out: Drug uptake
[8] = test system: Fonsecaea monophora; experiment: Antifungal activity against 1 x 10^6 CFU Fonsecaea monophora CBS 269.37 infected in OF1 mouse assessed as increase in mouse survival at 40 mg/kg, po qd administered 1 day after infection for 7 days; assay type: functional, organism-based; parameters: dose 40 mg/kg
[9] = test system: Fonsecaea monophora; experiment: Antifungal activity against 2 x 10^5 CFU Fonsecaea monophora CBS 117236 infected in OF1 mouse assessed as increase in mouse body weight at 20 mg/kg, po qd administered 1 day after infection for 7 days; assay type: functional, organism-based; parameters: dose 20 mg/kg
[10] = test system: Fonsecaea monophora; experiment: Antifungal activity against Fonsecaea monophora CBS 269.37; assay type: functional
[11] = Drug level in 1 x 10^6 CFU Fonsecaea monophora CBS 269.37 infected OF1 mouse serum at 40 mg/kg, po qd administered 1 day after infection measured on day 6 after 4 hrs of last treatment; assay type: ADME, organism-based; parameters: dose 40 mg/kg, route oral; conditions: read-out: Drug uptake
[12] = test system: Fonsecaea monophora; experiment: Antifungal activity against 1 x 10^6 CFU Fonsecaea monophora CBS 269.37 infected in OF1 mouse assessed as increase in mouse survival at 20 mg/kg, po qd administered 1 day after infection for 7 days; assay type: functional, organism-based; parameters: dose 20 mg/kg
[13] = test system: Fonsecaea monophora; experiment: Antifungal activity against Fonsecaea monophora CBS 117236; assay type: functional
[14] = test system: Fonsecaea monophora; experiment: Antifungal activity against 1 x 10^6 CFU Fonsecaea monophora CBS 269.37 infected in po dosed OF1 mouse assessed as reduction in fungal load in kidney compound administered qd 1 day after infection for 7 days; assay type: functional, organism-based
[15] = test system: Fonsecaea monophora; experiment: Antifungal activity against 2 x 10^5 CFU Fonsecaea monophora CBS 117236 infected in OF1 mouse assessed as increase in mouse body weight at 10 mg/kg, po qd administered 1 day after infection for 7 days; assay type: functional, organism-based; parameters: dose 10 mg/kg
[16] = test system: Fonsecaea monophora; experiment: Antifungal activity against 2 x 10^5 CFU Fonsecaea monophora CBS 117236 infected in OF1 mouse assessed as increase in mouse survival at 20 mg/kg, po qd administered 1 day after infection for 7 days; assay type: functional, organism-based; parameters: dose 20 mg/kg
[17] = Drug level in 1 x 10^6 CFU Fonsecaea monophora CBS 269.37 infected OF1 mouse brain at 40 mg/kg, po qd administered 1 day after infection measured on day 6 after 4 hrs of last treatment; assay type: ADME, organism-based; parameters: dose 40 mg/kg, route oral; conditions: read-out: Drug uptake
[18] = test system: Fonsecaea monophora; experiment: Antifungal activity against 2 x 10^5 CFU Fonsecaea monophora CBS 117236 infected in po dosed OF1 mouse assessed as reduction in fungal load in kidney compound administered qd 1 day after infection for 7 days; assay type: functional, organism-based
[19] = Drug level in 1 x 10^6 CFU Fonsecaea monophora CBS 269.37 infected OF1 mouse brain at 10 mg/kg, po qd administered 1 day after infection measured on day 6 after 4 hrs of last treatment; assay type: ADME, organism-based; parameters: dose 10 mg/kg, route oral; conditions: read-out: Drug uptake
[20] = test system: Fonsecaea monophora; experiment: Antifungal activity against 1 x 10^6 CFU Fonsecaea monophora CBS 269.37 infected in po dosed OF1 mouse assessed as reduction in fungal load in brain compound administered qd 1 day after infection for 7 days; assay type: functional, organism-based
[21] = test system: Fonsecaea monophora; experiment: Antifungal activity against 2 x 10^5 CFU Fonsecaea monophora CBS 117236 infected in OF1 mouse assessed as increase in mouse survival at 10 mg/kg, po qd administered 1 day after infection for 7 days; assay type: functional, organism-based; parameters: dose 10 mg/kg
[22] = test system: Fonsecaea monophora; experiment: Antifungal activity against 2 x 10^5 CFU Fonsecaea monophora CBS 117236 infected in po dosed OF1 mouse assessed as reduction in fungal load in brain compound administered qd 1 day after infection for 7 days; assay type: functional, organism-based
[23] = test system: Fonsecaea monophora; experiment: Antifungal activity against 2 x 10^5 CFU Fonsecaea monophora CBS 117236 infected in po dosed OF1 mouse assessed as reduction in fungal load in spleen compound administered qd 1 day after infection for 7 days; assay type: functional, organism-based
[24] = test system: Fonsecaea monophora; experiment: Antifungal activity against 2 x 10^5 CFU Fonsecaea monophora CBS 117236 infected in […] OF1 mouse assessed as reduction in fungal load in kidney at 1.5 mg/kg, ip qd administered 1 day after infection for 7 days; assay type: functional, organism-based; parameters: dose 1.5 mg/kg
[25] = test system: Fonsecaea monophora; experiment: Antifungal activity against 2 x 10^5 CFU Fonsecaea monophora CBS 117236 infected in […] OF1 mouse assessed as reduction in fungal load in lung at 1.5 mg/kg, ip qd administered 1 day after infection for 7 days; assay type: functional, organism-based; parameters: dose 1.5 mg/kg
[26] = test system: Fonsecaea monophora; experiment: Antifungal activity against 2 x 10^5 CFU Fonsecaea monophora CBS 117236 infected in […] OF1 mouse assessed as reduction in fungal load in spleen at 1.5 mg/kg, ip qd administered 1 day after infection for 7 days; assay type: functional, organism-based; parameters: dose 1.5 mg/kg
[27] = test system: Fonsecaea monophora; experiment: Antifungal activity against 1 x 10^6 CFU Fonsecaea monophora CBS 269.37 infected in […] OF1 mouse assessed as reduction in fungal load in lung at 1.5 mg/kg, ip qd administered 1 day after infection for 7 days; assay type: functional, organism-based; parameters: dose 1.5 mg/kg
[28] = test system: Fonsecaea monophora; experiment: Antifungal activity against 1 x 10^6 CFU Fonsecaea monophora CBS 269.37 infected in OF1 mouse assessed as increase in mouse survival at 1.5 mg/kg, ip qd administered 1 day after infection for 7 days; assay type: functional, organism-based; parameters: dose 1.5 mg/kg
[29] = test system: Fonsecaea monophora; experiment: Antifungal activity against 1 x 10^6 CFU Fonsecaea monophora CBS 269.37 infected in […] OF1 mouse assessed as reduction in fungal load in spleen at 1.5 mg/kg, ip qd administered 1 day after infection for 7 days; assay type: functional, organism-based; parameters: dose 1.5 mg/kg
[30] = test system: Fonsecaea monophora; experiment: Antifungal activity against 1 x 10^6 CFU Fonsecaea monophora CBS 269.37 infected in […] OF1 mouse assessed as reduction in fungal load in kidney at 1.5 mg/kg, ip qd administered 1 day after infection for 7 days; assay type: functional, organism-based; parameters: dose 1.5 mg/kg
[31] = Drug level in 1 x 10^6 CFU Fonsecaea monophora CBS 269.37 infected OF1 mouse serum at 1.5 mg/kg, ip qd administered 1 day after infection measured on day 6 after 4 hrs of last treatment; assay type: ADME, organism-based; parameters: dose 1.5 mg/kg, route intraperitoneal; conditions: read-out: Drug uptake
[32] = test system: Fonsecaea monophora; experiment: Antifungal activity against 1 x 10^6 CFU Fonsecaea monophora CBS 269.37 infected in OF1 mouse assessed as increase in mouse survival at 25 mg/kg, po bid administered 1 day after infection for 7 days; assay type: functional, organism-based; parameters: dose 25 mg/kg
[33] = test system: Fonsecaea monophora; experiment: Antifungal activity against 1 x 10^6 CFU Fonsecaea monophora CBS 269.37 infected in po dosed OF1 mouse assessed as reduction in fungal load in spleen at 25 mg/kg, po bid administered 1 day after infection for 7 days; assay type: functional, organism-based; parameters: dose 25 mg/kg
[34] = test system: Fonsecaea monophora; experiment: Antifungal activity against 2 x 10^5 CFU Fonsecaea monophora CBS 117236 infected in OF1 mouse assessed as increase in mouse survival at 25 mg/kg, po bid administered 1 day after infection for 7 days; assay type: functional, organism-based; parameters: dose 25 mg/kg
[35] = test system: Fonsecaea monophora; experiment: Antifungal activity against 1 x 10^6 CFU Fonsecaea monophora CBS 269.37 infected in po dosed OF1 mouse assessed as reduction in fungal load in kidney at 25 mg/kg, po bid administered 1 day after infection for 7 days; assay type: functional, organism-based; parameters: dose 25 mg/kg
[36] = test system: Fonsecaea monophora; experiment: Antifungal activity against 2 x 10^5 CFU Fonsecaea monophora CBS 117236 infected in po dosed OF1 mouse assessed as reduction in fungal load in kidney at 25 mg/kg, po bid administered 1 day after infection for 7 days; assay type: functional, organism-based; parameters: dose 25 mg/kg
[37] = Drug level in 1 x 10^6 CFU Fonsecaea monophora CBS 269.37 infected OF1 mouse serum at 50 mg/kg, po bid administered 1 day after infection measured on day 6 after 4 hrs of last treatment; assay type: ADME, organism-based; parameters: dose 50 mg/kg, route oral; conditions: read-out: Drug uptake
[38] = test system: Fonsecaea monophora; experiment: Antifungal activity against 2 x 10^5 CFU Fonsecaea monophora CBS 117236 infected in po dosed OF1 mouse assessed as reduction in fungal load in lung at 25 mg/kg, po bid administered 1 day after infection for 7 days; assay type: functional, organism-based; parameters: dose 25 mg/kg
[39] = test system: Fonsecaea monophora; experiment: Antifungal activity against 1 x 10^6 CFU Fonsecaea monophora CBS 269.37 infected in po dosed OF1 mouse assessed as reduction in fungal load in lung at 25 mg/kg, po bid administered 1 day after infection for 7 days; assay type: functional, organism-based; parameters: dose 25 mg/kg
[40] = test system: Fonsecaea monophora; experiment: Antifungal activity against 2 x 10^5 CFU Fonsecaea monophora CBS 117236 infected in po dosed OF1 mouse assessed as reduction in fungal load in spleen at 25 mg/kg, po bid administered 1 day after infection for 7 days; assay type: functional, organism-based; parameters: dose 25 mg/kg
[41] = Drug level in 1 x 10^6 CFU Fonsecaea monophora CBS 269.37 infected OF1 mouse brain at 50 mg/kg, po bid administered 1 day after infection measured on day 6 after 4 hrs of last treatment; assay type: ADME, organism-based; parameters: dose 50 mg/kg, route oral; conditions: read-out: Drug uptake

## CC[C@@H]([C@H](C)O)n1ncn(-c2ccc(N3CCN(c4ccc(OC[C@@H]5CO[C@@](Cn6cncn6)(c6ccc(F)cc6F)C5)cc4)CC3)cc2)c1=O [POSACONAZOLE]
[1]
  Activity: Active
[2]
  Activity: Dose-dependent effect
[3]
  concentration at 4 h: 2840 ng/g
[4]
  Activity: Dose-dependent effect
[5]
  Activity: Dose-dependent effect
[6]
  concentration at 4 h: 5170 ng/mL
[7]
  concentration at 4 h: 6350 ng/mL
[8]
  Activity: Active
[9]
  Activity: Active
[10]
  MIC: 0.25 µg/mL (≈ 0.357 µM)
[11]
  concentration at 4 h: 9720 ng/mL
[12]
  Activity: Active
[13]
  MIC: 0.12 µg/mL (≈ 0.171 µM)
[14]
  Activity: Dose-dependent effect
[15]
  Activity: Active
[16]
  Activity: Active
[17]
  concentration at 4 h: 6730 ng/g
[18]
  Activity: Dose-dependent effect
[19]
  concentration at 4 h: 2020 ng/g
[20]
  Activity: Dose-dependent effect
[21]
  Activity: Active
[22]
  Activity: Dose-dependent effect
[23]
  Activity: Dose-dependent effect

## C[C@@H]1[C@H](O)[C@@H](C)/C=C/C=C/C=C/C=C/C=C/C=C/C=C/[C@H](O[C@@H]2O[C@H](C)[C@@H](O)[C@H](N)[C@@H]2O)C[C@@H]2O[C@](O)(C[C@@H](O)C[C@@H](O)[C@H](O)CC[C@@H](O)C[C@@H](O)CC(=O)O[C@H]1C)C[C@H](O)[C@H]2C(=O)O [AMPHOTERICIN B]
[24]
  Activity: Active
[25]
  Activity: Active
[10]
  MIC: 1 µg/mL (≈ 1.08 µM)
[26]
  Activity: Active
[27]
  Activity: Active
[13]
  MIC: 1 µg/mL (≈ 1.08 µM)
[28]
  Activity: Active
[29]
  Activity: Active
[30]
  Activity: Active
[31]
  concentration at 4 h: 6450 ng/mL

## CCC(C)n1ncn(-c2ccc(N3CCN(c4ccc(OCC5COC(Cn6cncn6)(c6ccc(Cl)cc6Cl)O5)cc4)CC3)cc2)c1=O (stereo not given) [ITRACONAZOLE]
[32]
  Activity: inactive
[33]
  Activity: Active
[34]
  Activity: inactive
[35]
  Activity: Active
[36]
  Activity: Active
[37]
  concentration at 4 h: 7320 ng/mL
[38]
  Activity: Active
[10]
  MIC: 0.5 µg/mL (≈ 0.709 µM)
[39]
  Activity: Active
[40]
  Activity: Active
[13]
  MIC: 0.25 µg/mL (≈ 0.354 µM)
[41]
  concentration at 4 h: 6880 ng/g
